Among the data in ChEMBL document CHEMBL1157770, “Functionalized pyrazoles and pyrazolo[3,4-d]pyridazinones: Synthesis and evaluation of their phosphodiesterase 4 inhibitory activity” (Bioorg Med Chem, 2010) are inhibition and IC50 values, retold here.

For one assay, the target named is T1, Phosphodiesterase 4 (Homo sapiens, UniProt P27815+Q08499+Q07343+Q08493). The experiment in a line: Inhibition of PDE4 in human U937 cells at 1 uM after 30 mins by electrochemiluminescence based immunoassay. Type of assay: cell-based. The note with it: U-937.
Usually inhibition stands for the change of the read-out against control, counted positive when it falls. For the compound `CCn1nc(-c2ccccc2)c(C#N)c1CCc1ccccc1C(=O)O`, the inhibition came out at 11%.
The same measure, in the same setting: then `CCn1nc(-c2ccncc2)c(C#N)c1CCc1cccc2ccccc12`, with 2.8%.
Same read-out and setting: in the case of `CCn1nc(C(=O)Nc2c(Cl)cncc2Cl)c2c(C)n(-c3ccccc3)nc2c1=O` it was 3%.
The same measure, in the same setting: then `CCn1nc(COC)c2cn(-c3ccccc3Cl)nc2c1=O`, with 65%; and `CCOC(=O)Cn1nc(C)c2c(C)n(-c3cccc([N+](=O)[O-])c3)nc2c1=O`, with 64.1%.
For the compound `CCn1nc(C(=O)OC(C)C)c2c(C)n(-c3cccc([N+](=O)[O-])c3)nc2c1=O`, the inhibition turned out to be 6%.
The same measure, in the same setting: in the case of `CCn1nc(CO)c2c(C)n(-c3ccccc3Cl)nc2c1=O` it was -4%; in that of `CCn1nc(-c2ccccc2)c(C#N)c1/C=C/c1cccc2ccccc12`, 35%; in that of `CCn1nc(-c2ccccc2)c2c(C)n(-c3cccc([N+](=O)[O-])c3)nc2c1=O`, 47%.
Same read-out and setting: then `CCn1nc(C(=O)N(C)C)c2c(C)n(-c3cccc([N+](=O)[O-])c3)nc2c1=O`, with 4%; and `CCOC(=O)Cn1nc(-c2ccccc2)c2c(C)n(-c3cccc([N+](=O)[O-])c3)nc2c1=O`, with 1%.
Same read-out and setting: in the case of `CCn1nc(COC)c2c(C)n(-c3ccccc3Cl)nc2c1=O` it was 41%; in that of `CCn1nc(-c2ccccc2)c(C#N)c1/C=C/c1ccccc1C(=O)O`, 6%; in that of `CCN(C)C(=O)c1nn(CC)c(=O)c2nn(-c3cccc([N+](=O)[O-])c3)c(C)c12`, -2%.
Turning to `CCOC(=O)CCn1nc(-c2ccccc2)c2c(C)n(-c3cccc([N+](=O)[O-])c3)nc2c1=O`, the inhibition turned out to be 1%.
Turning to `COc1ccc(CCc2c(C#N)c(-c3ccccc3)nn2C)cc1OC`, the inhibition worked out at 14%.
With `CCn1nc(-c2ccccc2)c(C#N)c1CCc1cccc2ccccc12`, the inhibition is -3%.
On the same count and under the same terms, in the case of `CCn1nc(C#N)c2c(C)n(-c3ccccc3Cl)nc2c1=O` it was -2%.
Turning to `CCOC(=O)c1nn(CC)c(=O)c2nn(-c3cccc(CO)c3)c(C)c12`, the inhibition is 39%.
Take `Cc1nn(C)c(/C=C/c2ccccc2)c1C#N`: the inhibition came out at 1.3%.
Regarding `CCCOC(=O)c1nn(CC)c(=O)c2nn(-c3cccc([N+](=O)[O-])c3)c(C)c12`, the inhibition stood at 14%.
On the same count and under the same terms, then `CCn1nc(-c2nnc(C)o2)c2c(C)n(-c3cccc([N+](=O)[O-])c3)nc2c1=O`, with 48%; and `CCOC(=O)CCn1nc(C)c2c(C)n(-c3cccc([N+](=O)[O-])c3)nc2c1=O`, with 4%; and `CCn1nc(C#N)c2c(C)n(-c3c(Cl)cccc3Cl)nc2c1=O`, with 2%.
Regarding `CCn1nc(C(=O)NC)c2c(C)n(-c3cccc([N+](=O)[O-])c3)nc2c1=O`, the inhibition amounted to 14%.
For `CCn1nc(C(=O)O)c2c(C)n(-c3cccc([N+](=O)[O-])c3)nc2c1=O`, the inhibition amounted to 2%.
As to `COCc1nn(CC2CC2)c(=O)c2nn(-c3ccccc3Cl)cc12`, the inhibition was found to be 19%.
In the case of `CCn1nc(-c2ccncc2)c(C#N)c1/C=C/c1cccc2ccccc12`, the inhibition came to 19%.
As to `Cc1nn(C)c(CCc2ccccc2)c1C#N`, the inhibition worked out at 2.1%.

The target in a further assay is T1, Phosphodiesterase 4. The experiment in a line: Inhibition of PDE4 in human U937 cells at 10 uM after 30 mins by electrochemiluminescence based immunoassay. The format is cell-based. The conditions noted are these: U-937.
As to `CCOC(=O)c1nn(CC)c(=O)c2nn(Cc3ccc(C#N)cc3)c(C)c12`, the inhibition was 5%.

In the next assay the test system is PBMC. The experiment in a line: Antiinflammatory activity in human PBMC assessed as inhibition of LPS-induced TNFalpha production. Type of assay: functional, cell-based.
Details: not given
As usually defined, the IC50 is the midpoint of a concentration-inhibition curve. As for `CCOC(=O)c1nn(CC)c(=O)c2nn(-c3cccc([N+](=O)[O-])c3)c(C)c12`, the IC50 came out at 383 nM.
With `CCOC(=O)c1nn(CC)c(=O)c2nn(-c3ccccc3C)c(C)c12`, the IC50 is 127 nM.

In a further assay the target is T1, Phosphodiesterase 4. The assay is described as follows: Inhibition of PDE4 in human U937 cells after 30 mins by electrochemiluminescence based immunoassay. Type of assay: cell-based. The conditions noted are these: u-937.
Consider `CCOC(=O)c1nn(CC)c(=O)c2nn(-c3cccc([N+](=O)[O-])c3)c(C)c12`, for which the concentration for half-maximal inhibition (IC50) is 75 nM.
`CCCn1nc(C(=O)OCC)c2c(C)n(-c3cccc([N+](=O)[O-])c3)nc2c1=O`: the half-inhibitory concentration (IC50) stood at 72 nM.
Compound `CCn1nc(C(=O)OC)c2c(C)n(-c3cccc([N+](=O)[O-])c3)nc2c1=O` came in with a half-inhibitory concentration (IC50) of 46 nM.
On the same count and under the same terms, then `CCOC(=O)c1nn(CC)c(=O)c2nn(-c3cc(C(N)=O)ccc3Cl)c(C)c12`, with 757 nM; and `CCOC(=O)c1nn(CC)c(=O)c2nn(-c3ccccc3C)c(C)c12`, with 59 nM; and `CCOC(=O)c1nn(CC)c(=O)c2nn(-c3ccccc3Cl)c(C)c12`, with 32 nM.
Same read-out and setting: then `CCOC(=O)c1nn(CC)c(=O)c2nn(-c3ccccc3)c(C)c12`, with 300 nM; and `CCOC(=O)c1nn(CC2CC2)c(=O)c2nn(-c3ccccc3Cl)c(C)c12`, with 374 nM; and `CCOC(=O)c1nn(CC)c(=O)c2nn(Cc3ccc([N+](=O)[O-])cc3)c(C)c12`, with 1140 nM.
Compound `CCOC(=O)c1nn(CC)c(=O)c2nn(-c3c(Cl)cccc3Cl)c(C)c12` had an IC50 of 237 nM.
The same measure, in the same setting: in the case of `CCOC(=O)c1nn(CC)c(=O)c2nn(-c3cc(C(=O)OC)ccc3C)c(C)c12` it was 876 nM.
On the same count and under the same terms, in the case of `CCOC(=O)c1nn(CC)c(=O)c2nn(Cc3ccc(C(=O)OC)cc3)c(C)c12` it was 1200 nM.
For `CCn1nc(C)c2c(C)n(-c3cccc([N+](=O)[O-])c3)nc2c1=O`, the half-maximal inhibitory concentration (IC50) amounted to 385 nM.
